Test results as given in PMC5494507, “γ‐Secretase inhibitors in cancer clinical trials are pharmacologically and functionally distinct” (EMBO Molecular Medicine, 2017).
“Also recorded” adds a separate entry of the source. Like-named read-outs stand apart in the source and are kept apart here. Each block holds one compound with its values, some of them ahead of it.

How the values were obtained:
[1] = system: rC100sub and rNOTCH1sub; experiment: Cell-free γ-secretase assay, rC100sub and rNOTCH1sub (Appendix Fig S1); format: biochemical
Protocol: Although not suited for detailed dose–response studies due to challenges in precise quantification of the cleavage products, we nevertheless conducted several studies to examine how different GSIs affect cleavage in the cell‐free assay. […] We also evaluated a previously reported Notch‐sparing GSI, Avagacestat (BMS‐708163) (Gillman et al, 2010; Albright et al, 2013) using this assay (Appendix Fig S1).
CHAPSO‐solubilized CHO cell membrane was prepared as described in previous report. 25 μg/ml of each substrate was incubated with the membrane (100 μg/ml total protein) in sodium citrate buffer (150 mM, pH 6.5, Roche Complete protease inhibitor added) for 2 h at 37°C. […] The reaction was terminated by placing tubes on ice until immunoprecipitation.
(§1) Immunoprecipitation and mass spectrometry of Aβ and Aβ‐like peptides in cell‐free assay or conditioned media were performed as previously described (Ran et al, 2014). Briefly, the peptides were immunoprecipitated using anti‐Aβ Ab5 antibody bound to sheep anti‐mouse IgG magnetic Dynabeads (Life Technologies) and eluted with 0.1% trifluoroacetic acid (TFA) in water. COOH‐terminal fragments (CTFs) were immunoprecipitated with anti‐FLAG M2 magnetic beads (Sigma). […] Samples were analyzed using a Bruker Microflex LRF‐MALDI‐TOF mass spectrometer.

[2] = system: cNOTCH1sub; experiment: Cell-based γ-secretase cleavage assay, cNOTCH1sub in H4 cells (Aβ-like peptide ELISA); design: species or system human; details: Aβ-like peptide in media, GSI overnight
Protocol: (§2) Using these cell‐based γ‐secretase cleavage assays, we systematically investigated the substrate inhibition profile of BMS‐906024, MK‐0752, PF‐308414, RO4929097, Semagacestat, and DAPT. We treated H4 cells stably expressing cNOTCH1‐4sub with 4 pM to 10 μM of GSIs (Fig 5A and Table 2) and measured the Aβ‐like peptide secreted into the media.
(§3) For the cell‐based assay, all substrates contain a human NOTCH4 signal peptide sequence ([…]), amyloid β peptide (Aβ1–25/K16A) epitope tag followed by the juxtamembrane region (JMD) of the given substrate and a FLAG tag ([…]) at the COOH‐terminal. K16A mutant was created to decrease potential α‐secretase cleavage. The cDNAs were generated by gene synthesis conducted by Genscript. A schematic representation of the substrates is provided in Fig 4A, and sequences of the cDNAs and the proteins are provided in Appendix Fig S6. For clarity, these substrates are referred to as cell‐based assay substrates (e.g., NOTCH1 is cNOTCH1sub). Substrate cDNAs were cloned into pCDNA3.1 (Invitrogen, Carlsbad, CA, USA) for expression in H4 cells (ATCC, Manassas, VA).
(§4) H4 cells were cultured in Opti‐mem media (Thermo‐Fisher) supplemented with Hyclone 6% fetal bovine serum (GE, Logan, Utah, USA) and 1% penicillin/streptomycin (Life Technologies, Grand Island, NY, USA). pCDNA3.1 plasmids containing the substrate cDNAs were transfected into H4 cells using FuGENE HD reagent (Madison, WI, USA). Stable cell lines were established using G418 selection. […] Cells and conditioned media were used for WB, IP, and ELISA.
(§5) Sandwich ELISAs used for Aβ detection were performed as previously described (Murphy et al, 1999; Ran et al, 2014). Briefly, Aβ and Aβ‐like peptides in conditioned media were captured with Ab5 antibody and detected with horseradish peroxidase labeled mAb 4G8 (Biolegend). Synthetic Aβ1‐40 was used as standard. All ELISAs were developed with TMB substrate (KPL, Gaithersburg, Maryland, USA). Bis‐Tris precast gels (Biorad, Hercules, CA, USA) were used for all SDS–PAGE. Monoclonal anti‐FLAG M2 antibody (Sigma) and Aβ1‐16 antibody 6E10 (Covance) were used for Western blotting at 1:1,000 dilution. Anti‐CD74 In‐1 antibody (BD Bioscience, San Jose, CA, USA) was used for A20 cell lysate Western blotting at dilution of 1:1,000. MDA‐MB‐231 cell extracts were prepared by lysing cells in RIPA buffer containing protease and phosphatase inhibitors. The lysates were kept on ice for 30 min and vortexed every 10 min, and then centrifuged at 4°C for 10 min at 1,000 g. The supernatants were collected, and protein concentrations were determined by Bradford Assay. Pan‐NOTCH1 antibody (C‐20) (Santa Cruz Biotechnology) and cleaved NOTCH1 (Val1744) antibody (Developmental Studies Hybridoma Bank) were used at 1:500 and 1:100 dilution in the test of endogenous NOTCH1 inhibition with β‐actin expression used as loading control. β‐actin antibody was used at 1:1,000 dilution (Sigma). Band intensities normalized for actin using densitometry analysis with ImageJ Software (NIH, USA).

[3] = biological target: cNOTCH2sub (Homo sapiens, UniProt P49768); experiment: Cell-based γ-secretase cleavage assay, cNOTCH2sub in H4 cells (Aβ-like peptide ELISA); details: rank among the six GSIs, number in brackets
Protocol: as §2, §3, §4, §5

[4] = system: cNOTCH3sub; experiment: Cell-based γ-secretase cleavage assay, cNOTCH3sub in H4 cells (Aβ-like peptide ELISA); design: species or system human
Protocol: as §2, §3, §4, §5

[5] = system: cNOTCH4sub; experiment: Cell-based γ-secretase cleavage assay, cNOTCH4sub in H4 cells (Aβ-like peptide ELISA); design: species or system human; details: Aβ-like peptide in media, GSI overnight
Protocol: as §2, §3, §4, §5

[6] = system: cAPPC100sub; experiment: Cell-based γ-secretase cleavage assay, cAPPC100sub stably overexpressing cells (Aβ ELISA)
From the text: (§6) We next tested all GSIs on cAPPC100sub and full‐length APP stably overexpressing cells. […] The low‐dose potentiation of γ‐secretase cleavage was further mechanistically probed using in vitro assays with recombinant substrates and IP‐MS.
as §3, §4, §5

[7] = system: full‐length APP; experiment: Cell-based γ-secretase cleavage assay, full-length APP stably overexpressing cells (Aβ ELISA)
Protocol: as §6, §4, §5

[8] = system: cNOTCH1‐4sub; experiment: Average of cell-based IC50s on cNOTCH1-4sub in H4 cells; design: species or system human; details: read-out: Average IC50s of each GSI on cNOTCH1‐4sub
Protocol: as §2, §3, §4, §5

[9] = system: NOTCH1; experiment: Endogenous NOTCH1 cleavage inhibition in MDA-MB-231 cells (NICD Western blot after EDTA activation); format: cell-based; details: MDA-MB-231, 100 nM to 12.5 μM, 1 h pretreatment then 5 mM EDTA 5 min
Protocol: (§7) To extend the study to a more physiological system, we assessed endogenous NOTCH1 cleavage inhibition using the triple‐negative breast cancer line MDA‐MB‐231 (Fig 6A). Full‐length blots are shown in source data for Fig 6. NOTCH1 cleavage was detected by Western blotting using the Cell Signaling neo‐epitope NICD antibody. […] The inhibition of endogenous APP in MDA‐MB‐231 cells was also tested by detecting accumulation of APP COOH‐terminal fragments (APP‐CTFs). […] Figure 6D summarized the APP‐CTF band intensities normalized for DMSO group. The original blots are available in source data for Fig 6.
Short‐term endogenous NOTCH1 cleavage inhibition was tested in the triple‐negative breast cancer cell lines MDA‐MB‐231 (ATCC, Manassas, VA). Cells were plated in 60 mm dishes and maintained as monolayer cultures in DMEM medium supplemented with 10% FBS, 1% penicillin/streptomycin, 1% L‐glutamine (Life Technologies), and incubated at 37°C in a humidified 5% CO2 incubator. After the cells reached ~75% confluency, cultures were pretreated with GSIs for 1 h in DMEM at 37°C in a 5% CO2 incubator. GSIs were tested at concentrations of 0, 0.1, 0.5, 2.5, and 12.5 μM. Then, EDTA (5 mM, Life Technologies) was added to the cell cultures to induce Notch activation for 5 min. Following incubation, cell extracts were prepared by lysing cells in RIPA buffer (Santa Cruz Biotechnology) containing protease and phosphatase inhibitors. Western blotting was performed using Cleaved NOTCH1 (Val1744) antibody (Cell Signaling) with β‐actin (Santa Cruz Biotechnology) as loading control. Band intensities were normalized for actin using ImageJ Software (NIH, USA).
as §5

[10] = system: APP; experiment: Endogenous APP-CTF accumulation in MDA-MB-231 cells (Western blot); format: cell-based
Protocol: as §7
Values are mean ± SD of three tests. • APP‐CTF Western blot of MDA‐MB‐231 cells treated with indicated concentration of GSIs for 16 h. • Band intensities of APP‐CTF with 0.1 μM GSIs were normalized for DMSO control group. Values are mean ± SD of three tests. Data information: Original blots are provided as source data. All band intensity data are derived from three independent experiments and are analyzed by one‐way ANOVA using GraphPad Prism6 software. All experiments were repeated three times.Source data are available online for this figure.

[11] = system: cNOTCH1‐4sub and cAPPC100sub; experiment: Substrate accumulation in H4 cells stably expressing cNOTCH1-4sub and cAPPC100sub (Western blot); format: cell-based, human; details: for substrate accumulation (Western blot), other GSIs tried beside DAPT: authors' response, concentration not given
Protocol: In order to enable us to more definitively characterize the effects of various GSIs on different substrates, we generated H4 cells stably expressing cNOTCH1‐4sub and cAPPC100sub (Fig 4A). Chimeric substrates were detected by WB using anti‐FLAG antibody (Fig 4B). Multiple CTFs are detectable as well as potential dimers for all substrates. Multiple NTF are also detectable using anti‐Aβ 6E10 antibody (Appendix Fig S2) for cNOTCH1, 3, and 4 substrates.
as §4
as §5, with “Pan‐NOTCH1 antibody (C‐20) (Santa Cruz Biotechnology) and cleaved NOTCH1 (Val1744) antibody (Developmental Studies Hybridoma Bank) were used at 1:500 and 1:100 dilution in the test of endogenous NOTCH1 inhibition with β‐actin expression used as loading control. β‐actin antibody was used at 1:1,000 dilution (Sigma). Band intensities normalized for actin using densitometry analysis with ImageJ Software (NIH, USA).” left out

[12] = system: Aβ40; design: method as in ref Appendix Table S1 (Gavai et al, 2015; Dovey et al, 2001; Cook et al, 2010; Krop et al, 2012; Wei et al, 2010; Luistro et al, 2009; Mitani et al, 2012); details: ref Appendix Table S1 (Gavai et al, 2015; Dovey et al, 2001; Cook et al, 2010; Krop et al, 2012; Wei et al, 2010; Luistro et al, 2009; Mitani et al, 2012); read-out: Reported IC50s Aβ40; cited from earlier work
[13] = system: SPP; design: method as in Weihofen et al, 2003; details: concentration up to 100 μM; ref Weihofen et al, 2003; cited from earlier work
[14] = biological target: γ‐secretase (Homo sapiens, UniProt P49768); details: quoted in parentheses in the authors' response, no assay and reference not given; cited from earlier work
[15] = system: cNOTCH1‐4sub and cAPPC100sub; experiment: Secretion of Aβ-like peptides from cNOTCH1-4sub and cAPPC100sub H4 cells (ELISA, IP-MS); format: cell-based, human
Protocol: The secreted Aβ‐like peptides can be detected using Aβ ELISA method.
as §4
as §1, with “water.” for “water. COOH‐terminal fragments (CTFs) were immunoprecipitated with anti‐FLAG M2 magnetic beads (Sigma).”
Sandwich ELISAs used for Aβ detection were performed as previously described (Murphy et al, 1999; Ran et al, 2014). Briefly, Aβ and Aβ‐like peptides in conditioned media were captured with Ab5 antibody and detected with horseradish peroxidase labeled mAb 4G8 (Biolegend). […] The supernatants were collected, and protein concentrations were determined by Bradford Assay. […]

SMILES: NC(=O)[C@@H](CCC(F)(F)F)N(Cc1ccc(-c2ncon2)cc1F)S(=O)(=O)c1ccc(Cl)cc1 [Avagacestat]
inhibition of APP versus Notch cleavage [1]: inhibit APP and Notch cleavage equivalently

IC50 [2]: 4.9 nM
rank order of inhibition of cNOTCH2sub [3]: [6]
IC50 ([4]; Aβ-like peptide in media, GSI overnight, read-out: IC50 cNOTCH3sub): 624 nM
IC50 ([4]; value in parentheses, read-out: IC50 cNOTCH3sub, from curves excluding the Aβ level > 120%): 265 nM
IC50 [5]: 51.5 nM
IC50 ([7]; full-length APP stably overexpressing cells, Aβ ELISA): 32.7 nM
IC50 [8]: 191 nM
SMILES: C[C@H](NC(=O)Cc1cc(F)cc(F)c1)C(=O)N[C@H](C(=O)OC(C)(C)C)c1ccccc1 [DAPT]
effect on cNOTCH3sub cleavage at low concentrations [4]: potentiate
IC50 ([6]; stably overexpressing cells, Aβ ELISA, read-out: IC50 cC100sub): 360 nM
IC50 ([6]; value in parentheses, read-out: IC50 cC100sub, from curves excluding the Aβ level > 120%): 212 nM
low-dose potentiation of cleavage, APP ([7]; full-length APP overexpressing cells): low‐dose potentiation of cleavage was observed
NICD levels [9]: did not suppress NICD levels to baseline levels at any concentrations
APP CTF level / accumulation at 100 nM ([10]; MDA-MB-231 (231 cells), 100 nM, triplicate): hard to see; also recorded: did not significantly increase CTF level
concentration from which APP‐CTF process is inhibited ([10]; MDA-MB-231, 16 h): ≥ 500 nM
substrate accumulation (Western blot) ([11]; 1 μM treatment, H4 cells): did not result in significant substrate accumulation except for cAPPC100sub
IC50 [12]: 20 nM
effect on SPP activity [13]: no effect

SMILES: CC(C)C[C@H](NC(=O)[C@H](Cc1ccccc1)C[C@@H](O)[C@H](Cc1ccccc1)NC(=O)OC(C)(C)C)C(=O)N[C@@H](Cc1ccccc1)C(N)=O [L685458]
substrate accumulation (Western blot), other GSIs tried beside DAPT [11]: only cAPPC100 show some accumulation
IC50 [14]: 17 nM

SMILES: C[C@H](NC(=O)[C@@H](O)c1cc(F)cc(F)c1)C(=O)N[C@@H]1C(=O)N(C)c2ccccc2-c2ccccc21 [LY411575, N2‐[(2S)‐2‐(3,5‐difluorophenyl)‐2‐hydroxyethanoyl]‐N1‐[(7S)‐5‐methyl‐6‐oxo ‐6,7‐dihydro‐5H‐dibenzo[b,d]azepin‐7‐yl]‐L‐alaninamide]
substrate accumulation (Western blot), other GSIs tried beside DAPT [11]: only cAPPC100 show some accumulation
Aβ-like peptides in culture media (IP-MS) ([15]; 1 μM): abolished all production
secretion of Aβ-like peptides (ELISA) ([15]; 1 μM applied to cell cultures): almost completely inhibited
